{"source": "patent US8329899B2", "about": "“Pyrazole compounds that modulate HSP90 activity” (Synta Pharmaceuticals, Corp., priority 2005, dated 2012)", "test_system": "Her2", "test": "Degradation of Her2 in BT-474 cells, Method 1 (Western blot)", "type": "cell-based, Human", "settings": "0.5 μM, overnight", "method": "Human high-Her2 breast carcinoma BT474 (HTB-20), SK-BR-3 (HTB-30) and MCF-7 breast carcinoma (HTB-22) from American Type Culture Collection, Va., USA were grown in Dulbecco's modified Eagle's medium with 4 mM L-glutamine and antibiotics (100 IU/ml penicillin and 100 ug/ml streptomycine; GibcoBRL). To obtain exponential cell growth, cells were trypsinized, counted and seeded at a cell density of 0.5×10^6 cells/ml regularly, every 3 days. All experiments were performed on day 1 after cell passage.\nBT-474 cells are treated with 0.5 μM, 2 μM, or 5 μM of 17AAG (a positive control) or 0.5 μM, 2 μM, or 5 μM of a compound of the invention overnight in DMEM medium. After treatment, each cytoplasmic sample is prepared from 1×10^6 cells by incubation of cell lysis buffer (#9803, cell Signaling Technology) on ice for 10 minutes. The resulting supernatant used as the cytosol fractions is dissolved with sample buffer for SDS-PAGE and run on a SDS-PAGE gel, blotted onto a nitrocellulose membrane by using semi-dry transfer. Non-specific binding to nitrocellulose is blocked with 5% skim milk in TBS with 0.5% Tween at room temperature for 1 hour, then probed with anti-Her2/ErB2 mAb (rabbit IgG, #2242, Cell Signaling) and anti-Tubulin (T9026, Sigma) as housekeeping control protein. […]"}
{"smiles": "C=CCNC1=C2C[C@@H](C)C[C@H](OC)[C@H](O)[C@@H](C)/C=C(\\C)[C@H](OC(N)=O)[C@@H](OC)/C=C\\C=C(/C)C(=O)NC(=CC1=O)C2=O", "note": "[Compound 17AAG]", "values": [{"measurement": "degradation of Her2", "value": "partial degradation"}]}
